In patent US20090162286A1, “Phosphodiesterase 10 Inhibition as Treatment for Obesity-Related and Metabolic Syndrome-Related Conditions” (Pfizer Inc., priority 2004, published 2009):

Key:
[1] = Obesity Food Intake Model - Fasted-Induced Feeding Assay; format: in vivo, rat; settings: fasted male CD rats; for effect on food intake (fasting-induced refeeding): 10 mg/kg, given 30 minutes prior to return of food, vs vehicle-treated control; for fasting-induced refeeding, dose dependence: Compound IIA 0.1, 1, 10 mg/kg, Compound IIIA 1, 3, 10, 32 mg/kg, comparator rimonabant 3 mg/kg
Procedure: PDE10 inhibitors were also tested for efficacy in reducing the acute re-feeding response following food withdrawal. Male CD rats were fasted overnight. Rats were administered a PDE10 inhibitor (Compound IIA and IIIA in separate tests) 30 minutes prior to the return of food. Food consumption was monitored and weighed at predetermined time points and the effect of PDE10 inhibitors were compared to vehicle-treated control rats.
Compound IIA, Compound IIIA and rimonabant were tested in the fasted-induced feeding assay described above. Compound IIA was tested at 10 mg/kg, 1 mg/kg and 0.1 mg/kg; Compound IIIA was tested at 32 mg/kg, 10 mg/kg, 3 mg/kg and 1 mg/kg; and rimonabant was tested at 3 mg/kg. Both Compound IIA and Compound IIIA were efficacious at 10 mg/kg.

[2] = Body weight and food intake in diet-induced obese (DIO) mice; format: in vivo, mouse; settings: 15 mg/kg twice daily po
Procedure: Mice were individually housed and divided into two groups: a group of control mice which remained on Purina 5001 chow; and another group which was switched to a diet composed of 45 kcal % fat (D12331 Rodent Diet, Research Diets, Inc., New Brunswick, N.J.) for the duration of the 6 week study. Food intake was measured on a 24-hour, 5 days/week cycle (Monday-Friday). Body weight was determined on Day 0 and thereafter at the same time that food intake was measured. For testing the effects of a PDE10 inhibitor on body weight and oxygen consumption, a mouse model of diet-induced obesity (DIO) was used. Obesity was induced in the mice by maintaining them on a 45% fat diet for more than 14 weeks. DIO mice were treated with Compound IVA at a dose of 15 mg/kg, administered twice daily (p.o.) for 14 days. Control mice were administered a vehicle of 0.5% methylcellulose. Measurements were made as previously described. DIO mice were treated with Compound IVA at a dose of 15 mg/kg administered twice daily (po). Control mice were administered the vehicle, 0.5% methylcellulose. […] Oxygen consumption was determined in the Compound IV and vehicle treated mice at the end of the study.

[3] = Oxygen consumption in diet-induced obese (DIO) mice; format: in vivo, mouse; settings: 15 mg/kg twice daily po, at the end of the study, vs vehicle
Procedure: Following determination of body composition, energy expenditure and oxygen consumption were determined using an Oxymax system (Columbus Instruments, Columbus, Ohio). Mice were housed under standard laboratory conditions and maintained on the experimental diet. Mice were acclimated to sealed chambers (8″×4″×5.5″) of the calorimeter (one mouse per chamber). The chambers were placed in activity monitors. The calorimeter was calibrated before each use, airflow was adjusted to 1.6 liters/min, and the system setting and sampling times were set to 60 seconds and 15 seconds, respectively. Oxygen consumption, carbon dioxide production, and ambulatory activity were measured every 10 minutes for a period of 4 hours. For testing the effects of a PDE10 inhibitor on body weight and oxygen consumption, a mouse model of diet-induced obesity (DIO) was used. Obesity was induced in the mice by maintaining them on a 45% fat diet for more than 14 weeks. DIO mice were treated with Compound IVA at a dose of 15 mg/kg, administered twice daily (p.o.) for 14 days. Control mice were administered a vehicle of 0.5% methylcellulose. Measurements were made as previously described. DIO mice were treated with Compound IVA at a dose of 15 mg/kg administered twice daily (po). […] Oxygen consumption was determined in the Compound IV and vehicle treated mice at the end of the study.

Structure (SMILES) | effect on food intake (fasting-induced refeeding) [1] | fasting-induced refeeding, dose dependence [1] | body weight change ([2]; 14 days, vs vehicle 0.5% methylcellulose) | onset of weight loss ([2]; apparent on the 4th day) | food intake ([2]; vs vehicle 0.5% methylcellulose) | oxygen consumption [3]
COc1cc2ncnc(N3CC[C@@H](Oc4cnc5ccccc5n4)C3)c2cc1OC (stereo in doubt) [Compound IIA, 6,7-Dimethoxy-4-[3-(quinoxalin-2-yloxy)-pyrrolidin-1-yl]-quinazoline] | efficacious | reduce fasting-induced refeeding in the rats in a dose dependent fashion | – | – | – | –
COc1cc2nc(N3CCNCC3)nc(-c3ccccc3F)c2cc1OC [Compound IIIA, 4-(2-Fluorophenyl)-6,7-dimethoxy-2-piperazin-1-yl-quinazoline] | efficacious | reduce fasting-induced refeeding in the rats in a dose dependent fashion | – | – | – | –
c1ccc2nc(COc3ccc(-c4[nH]ncc4-c4ccncc4)cc3)ccc2c1 [Compound IVA, 2-[4-(4-Pyridin-4-yl-2H-pyrazol-3-yl)-phenoxymethyl]-quinoline] | – | – | led to weight loss | after three days treatment | small reduction in food intake | slight non-significant increase in oxygen consumption
